Experimental data reported in patent publication US20260035365A1, “1H-PYRROLO[3,2-B]PYRIDINE DERIVATIVES AS IRREVERSIBLE INHIBITORS OF MUTANT EGFR FOR THE TREATMENT OF CANCER” (Bayer Aktiengesellschaft, priority 2022, published 2026).

What was measured:
[1] = system: BA/F3 (insSVD) cells; test: Ba/F3 cell survival assay (Cell Titer-Glo), EGFR-insSVD; assay type: cell-based; conditions: Mus musculus, BaF3, 48 h, without IL-3, with EGF
How it was run: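 Viability read by CellTiter-Glo luminescence after 48 h compound exposure at 37° C, 4000 cells/well. Retrovirally transduced, puromycin-selected Ba/F3 lines carrying EGFR-insSVD ± T790M grew IL-3-free with 10 ng/mL EGF for 2 days beforehand; compound delivered by 100 nL pin.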

[2] = molecular target: mutEGFR (D770_N771insNPG, T790); test: mutEGFR (D770_N771insNPG, T790) kinase assay; assay type: biochemical, human
[3] = molecular target: mutEGFR (D770_N771insSVD) (Homo sapiens, UniProt P00533, INS767SVD); test: Exon20-mutant-EGFR (D770_N771insSVD) TR-FRET kinase assay; assay type: biochemical; conditions: 2 mM ATP, 15 min preincubation
How it was run: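 GST-fused human EGFR fragment R669-A1210 carrying the SVD insertion, Sf9-expressed, typically 15 pg/μl, was preincubated with compound for 15 min at 22° C in pH 7.0 Hepes/MgCl2 buffer. Phosphorylation was read by HTRF (665/620 nm ratio), normalised to no-inhibitor and no-enzyme controls.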

Chain of mutEGFR (D770_N771insSVD) (P00533 with tags, fused parts or gaps INS767SVD limits assumed): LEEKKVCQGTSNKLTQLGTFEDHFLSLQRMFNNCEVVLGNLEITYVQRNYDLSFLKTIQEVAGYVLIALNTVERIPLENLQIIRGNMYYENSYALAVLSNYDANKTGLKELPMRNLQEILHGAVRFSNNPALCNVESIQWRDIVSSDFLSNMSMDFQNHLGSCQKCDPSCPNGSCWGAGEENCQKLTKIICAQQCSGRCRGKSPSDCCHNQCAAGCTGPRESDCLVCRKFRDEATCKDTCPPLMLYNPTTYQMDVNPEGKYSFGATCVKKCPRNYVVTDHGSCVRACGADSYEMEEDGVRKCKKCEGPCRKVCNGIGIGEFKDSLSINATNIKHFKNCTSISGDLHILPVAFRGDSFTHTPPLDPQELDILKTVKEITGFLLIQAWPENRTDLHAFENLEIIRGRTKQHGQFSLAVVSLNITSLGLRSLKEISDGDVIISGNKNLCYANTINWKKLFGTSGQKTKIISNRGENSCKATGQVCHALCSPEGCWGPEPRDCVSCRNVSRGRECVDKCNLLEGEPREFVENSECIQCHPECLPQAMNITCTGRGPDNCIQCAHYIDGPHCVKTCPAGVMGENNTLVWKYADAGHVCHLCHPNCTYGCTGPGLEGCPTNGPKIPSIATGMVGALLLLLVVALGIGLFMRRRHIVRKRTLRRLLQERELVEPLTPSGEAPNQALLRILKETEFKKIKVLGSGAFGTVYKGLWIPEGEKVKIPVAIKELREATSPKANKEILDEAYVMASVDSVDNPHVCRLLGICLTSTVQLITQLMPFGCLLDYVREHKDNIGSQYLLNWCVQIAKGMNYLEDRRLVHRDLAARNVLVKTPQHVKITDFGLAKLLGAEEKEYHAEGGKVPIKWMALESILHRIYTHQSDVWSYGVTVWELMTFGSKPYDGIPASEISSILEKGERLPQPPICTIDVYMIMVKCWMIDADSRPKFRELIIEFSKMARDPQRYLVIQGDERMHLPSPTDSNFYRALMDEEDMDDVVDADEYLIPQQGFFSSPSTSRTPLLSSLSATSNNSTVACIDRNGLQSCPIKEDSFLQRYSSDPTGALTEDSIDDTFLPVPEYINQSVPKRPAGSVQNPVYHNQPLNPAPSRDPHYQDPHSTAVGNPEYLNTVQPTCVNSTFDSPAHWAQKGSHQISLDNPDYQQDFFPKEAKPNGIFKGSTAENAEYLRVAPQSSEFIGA
Chain of mutEGFR (D770_N771insNPG, T790) (P00533 with tags, fused parts or gaps INS770NPG limits assumed): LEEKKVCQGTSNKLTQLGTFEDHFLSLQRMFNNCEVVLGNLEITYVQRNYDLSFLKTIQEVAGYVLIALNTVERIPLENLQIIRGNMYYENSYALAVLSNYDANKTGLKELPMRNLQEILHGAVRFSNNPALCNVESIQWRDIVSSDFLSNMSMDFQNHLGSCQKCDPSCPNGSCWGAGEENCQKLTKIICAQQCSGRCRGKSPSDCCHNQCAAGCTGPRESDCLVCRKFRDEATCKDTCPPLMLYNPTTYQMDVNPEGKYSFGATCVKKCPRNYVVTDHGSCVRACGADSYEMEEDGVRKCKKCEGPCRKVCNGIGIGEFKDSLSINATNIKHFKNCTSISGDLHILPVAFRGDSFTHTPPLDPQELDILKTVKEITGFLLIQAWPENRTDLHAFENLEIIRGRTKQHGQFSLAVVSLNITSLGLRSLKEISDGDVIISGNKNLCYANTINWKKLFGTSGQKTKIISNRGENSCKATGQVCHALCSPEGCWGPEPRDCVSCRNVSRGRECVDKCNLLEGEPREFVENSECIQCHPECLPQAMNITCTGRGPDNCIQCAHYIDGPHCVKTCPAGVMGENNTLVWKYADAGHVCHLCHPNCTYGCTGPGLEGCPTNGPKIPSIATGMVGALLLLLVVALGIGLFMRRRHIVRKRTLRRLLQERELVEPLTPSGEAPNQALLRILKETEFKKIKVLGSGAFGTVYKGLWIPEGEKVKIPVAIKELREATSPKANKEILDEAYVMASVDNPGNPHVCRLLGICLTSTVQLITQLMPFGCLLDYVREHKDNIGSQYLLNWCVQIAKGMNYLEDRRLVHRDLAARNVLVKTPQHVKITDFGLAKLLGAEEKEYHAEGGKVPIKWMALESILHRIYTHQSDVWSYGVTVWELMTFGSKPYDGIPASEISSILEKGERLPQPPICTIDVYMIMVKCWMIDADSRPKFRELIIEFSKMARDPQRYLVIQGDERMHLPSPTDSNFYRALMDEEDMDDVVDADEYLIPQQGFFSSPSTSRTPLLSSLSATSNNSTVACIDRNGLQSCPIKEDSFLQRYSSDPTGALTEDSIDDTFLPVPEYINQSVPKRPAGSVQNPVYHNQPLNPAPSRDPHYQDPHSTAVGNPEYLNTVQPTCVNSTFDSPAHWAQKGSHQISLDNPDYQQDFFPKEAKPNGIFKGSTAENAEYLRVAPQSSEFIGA

SMILES | IC50 [1] | IC50 [2] | IC50 [3]
C=CS(=O)(=O)N1CC[C@@]1(C)COc1cnccc1-c1[nH]c2cccnc2c1-c1ccccc1 [Example 146, 2-(3-{[(2S)-1-(ethenesulfonyl)-2-methylazetidin-2-yl]methoxy}pyridin-4-yl)-3-phenyl-1H-pyrrolo[3,2-b]pyridine] | 1.24 µM | 0.265 µM | 0.0327 µM
C=CS(=O)(=O)N(C)CCOc1cnccc1-c1[nH]c2cccnc2c1-c1ccccc1CC [Example 72, N-[2-({4-[3-(2-ethylphenyl)-1H-pyrrolo[3,2-b]pyridin-2-yl]pyridin-3-yl}oxy)ethyl]-N-methylethenesulfonamide] | 0.463 µM | 0.0788 µM | 0.00582 µM
C=CC(=O)N1CCC[C@H]1COc1cnccc1-c1[nH]c2cccnc2c1-c1ccc2ccoc2c1 [Example 82, 1-{(2S)-2-[({4-[3-(1-benzofuran-6-yl)-1H-pyrrolo[3,2-b]pyridin-2-yl]pyridin-3-yl}oxy)methyl]pyrrolidin-1-yl}prop-2-en-1-one] | 0.0368 µM | 0.000837 µM | 0.000267 µM
C=CC(=O)N(C)CCOc1cnccc1-c1[nH]c2cccnc2c1-c1cc(C(F)(F)F)ccc1F [Example 51, N-{2-[(4-{3-[2-fluoro-5-(trifluoromethyl)phenyl]-1H-pyrrolo[3,2-b]pyridin-2-yl}pyridin-3-yl)oxy]ethyl}-N-methylprop-2-enamide] | 1.92 µM | 0.132 µM | 0.0756 µM
C=CC(=O)N(C)CCOc1cnccc1-c1[nH]c2cccnc2c1-c1ccc2ccsc2c1 [Example 44, N-[2-({4-[3-(1-benzothiophen-6-yl)-1H-pyrrolo[3,2-b]pyridin-2-yl]pyridin-3-yl}oxy)ethyl]-N-methylprop-2-enamide] | 0.999 µM | 0.064 µM | 0.0211 µM
CN(C)C/C=C/C(=O)N1CCOCC1COc1cnccc1-c1[nH]c2cccnc2c1-c1ccccc1 (stereo not drawn) [Example 150, (2E)-4-(dimethylamino)-1-[3-({[4-(3-phenyl-1H-pyrrolo[3,2-b]pyridin-2-yl)pyridin-3-yl]oxy}methyl)morpholin-4-yl]but-2-en-1-one] | 9.81 µM | > 20 µM | 4.66 µM
C=CS(=O)(=O)N1CCC[C@H]1COc1cnccc1-c1[nH]c2c(C)ccnc2c1-c1ccccc1 [Example 136, 2-(3-{[(2S)-1-(ethenesulfonyl)pyrrolidin-2-yl]methoxy}pyridin-4-yl)-7-methyl-3-phenyl-1H-pyrrolo[3,2-b]pyridine] | 0.00843 µM | 0.000706 µM | 0.000214 µM
C=CC(=O)N1CC[C@H]1COc1cnccc1-c1[nH]c2cccnc2c1-c1cccc(C(F)(F)F)c1 (single isomer, unassigned) [Example 143] | 3.84 µM | 0.678 µM | 0.129 µM
C=CC(=O)N1C=C(F)C[C@H]1COc1cnccc1-c1[nH]c2cccnc2c1-c1ccccc1 [Example 113, 1-[(2S)-4-fluoro-2-({[4-(3-phenyl-1H-pyrrolo[3,2-b]pyridin-2-yl)pyridin-3-yl]oxy}methyl)-2,3-dihydro-1H-pyrrol-1-yl]prop-2-en-1-one] | 0.00999 µM | 0.000724 µM | 0.000114 µM
C=CS(=O)(=O)N(C)CCOc1cnccc1-c1[nH]c2cccnc2c1-c1ccc2ccsc2c1 [Example 62, N-[2-({4-[3-(1-benzothiophen-6-yl)-1H-pyrrolo[3,2-b]pyridin-2-yl]pyridin-3-yl}oxy)ethyl]-N-methylethenesulfonamide] | 0.326 µM | 0.0033 µM | 0.00114 µM
C=CC(=O)N1CCC[C@H]1COc1cnccc1-c1[nH]c2cccnc2c1-c1cccc(CC)c1 [Example 78, 1-{(2S)-2-[({4-[3-(3-ethylphenyl)-1H-pyrrolo[3,2-b]pyridin-2-yl]pyridin-3-yl}oxy)methyl]pyrrolidin-1-yl}prop-2-en-1-one] | 0.0802 µM | 0.00292 µM | 0.00104 µM
C=CS(=O)(=O)N(C)CCOc1cnccc1-c1[nH]c2cccnc2c1-c1cccc(C(F)(F)F)c1 [Example 66, N-methyl-N-{2-[(4-{3-[3-(trifluoromethyl)phenyl]-1H-pyrrolo[3,2-b]pyridin-2-yl}pyridin-3-yl)oxy]ethyl}ethenesulfonamide] | 0.421 µM | 0.00666 µM | 0.00261 µM
C=CC(=O)N1CCC[C@H]1COc1cnccc1-c1[nH]c2cccnc2c1-c1ccc(F)c(OC(F)F)c1 [Example 103, 1-[(2S)-2-{[(4-{3-[3-(difluoromethoxy)-4-fluorophenyl]-1H-pyrrolo[3,2-b]pyridin-2-yl}pyridin-3-yl)oxy]methyl}pyrrolidin-1-yl]prop-2-en-1-one] | 0.65 µM | 0.0169 µM | 0.00356 µM
C=CC(=O)N(C)CCOc1cnccc1-c1[nH]c2cccnc2c1-c1cc(F)cc(F)c1 [Example 52, N-[2-({4-[3-(3,5-difluorophenyl)-1H-pyrrolo[3,2-b]pyridin-2-yl]pyridin-3-yl}oxy)ethyl]-N-methylprop-2-enamide] | 3.1 µM | 0.204 µM | 0.0771 µM
CN(C)CC#CC(=O)N1CCC[C@H]1COc1cnccc1-c1[nH]c2cccnc2c1-c1ccccc1 [Example 100, 4-(dimethylamino)-1-[(2S)-2-({[4-(3-phenyl-1H-pyrrolo[3,2-b]pyridin-2-yl)pyridin-3-yl]oxy}methyl)pyrrolidin-1-yl]but-2-yn-1-one] | 0.0575 µM | 0.00467 µM | 0.00111 µM
C=CC(=O)N1C[C@@H](F)C[C@H]1COc1cnccc1-c1[nH]c2cccnc2c1-c1ccccc1 [Example 114, 1-[(2S,4S)-4-fluoro-2-({[4-(3-phenyl-1H-pyrrolo[3,2-b]pyridin-2-yl)pyridin-3-yl]oxy}methyl)pyrrolidin-1-yl]prop-2-en-1-one] | 0.0389 µM | 0.00435 µM | 0.00096 µM
CN(C)C/C=C/C(=O)N1CCC[C@H]1COc1cnccc1-c1[nH]c2cccnc2c1-c1ccc(F)c(OC(F)(F)F)c1 [Example 107, (2E)-4-(dimethylamino)-1-[(2S)-2-{[(4-{3-[4-fluoro-3-(trifluoromethoxy)phenyl]-1H-pyrrolo[3,2-b]pyridin-2-yl}pyridin-3-yl)oxy]methyl}pyrrolidin-1-yl]but-2-en-1-one] | 1.51 µM | 0.342 µM | 0.0945 µM
CN(C)C/C=C/C(=O)N1CCC[C@H]1COc1cnccc1-c1[nH]c2cccnc2c1-c1cccc(C(F)(F)F)c1 [Example 96, (2E)-4-(dimethylamino)-1-[(2S)-2-{[(4-{3-[3-(trifluoromethyl)phenyl]-1H-pyrrolo[3,2-b]pyridin-2-yl}pyridin-3-yl)oxy]methyl}pyrrolidin-1-yl]but-2-en-1-one] | 0.373 µM | 0.0221 µM | 0.00345 µM
C=CC(=O)N(C)CCOc1cnccc1-c1[nH]c2cccnc2c1-c1cc(CC)ccc1F [Example 48, N-[2-({4-[3-(5-ethyl-2-fluorophenyl)-1H-pyrrolo[3,2-b]pyridin-2-yl]pyridin-3-yl}oxy)ethyl]-N-methylprop-2-enamide] | 0.962 µM | 0.109 µM | 0.0368 µM
C=CC(=O)N1CC(F)(F)C[C@H]1COc1cnccc1-c1[nH]c2cccnc2c1-c1ccccc1 [Example 112, 1-[(2S)-4,4-difluoro-2-({[4-(3-phenyl-1H-pyrrolo[3,2-b]pyridin-2-yl)pyridin-3-yl]oxy}methyl)pyrrolidin-1-yl]prop-2-en-1-one] | 0.0175 µM | 0.000979 µM | 0.000215 µM
C=CC(=O)N1CCC[C@H]1COc1cncc(F)c1-c1[nH]c2cccnc2c1-c1cc(Cl)ccc1F [Example 129, 1-{(2S)-2-[({4-[3-(5-chloro-2-fluorophenyl)-1H-pyrrolo[3,2-b]pyridin-2-yl]-5-fluoropyridin-3-yl}oxy)methyl]pyrrolidin-1-yl}prop-2-en-1-one] | 0.11 µM | 0.0926 µM | 0.001 µM
C=CS(=O)(=O)N1CCC(Oc2cnccc2-c2[nH]c3cccnc3c2-c2cccc(Cl)c2)C1 (racemic) [Example 121, 3-(3-chlorophenyl)-2-(3-{[(3RS)-1-(ethenesulfonyl)pyrrolidin-3-yl]oxy}pyridin-4-yl)-1H-pyrrolo[3,2-b]pyridine] | 0.497 µM | 0.018 µM | 0.00691 µM
C=CC(=O)N1CCC[C@H]1COc1cnccc1-c1[nH]c2c(C)ccnc2c1-c1ccccc1 [Example 135, 1-[(2S)-2-({[4-(7-methyl-3-phenyl-1H-pyrrolo[3,2-b]pyridin-2-yl)pyridin-3-yl]oxy}methyl)pyrrolidin-1-yl]prop-2-en-1-one] | 0.0161 µM | 0.00183 µM | 0.000589 µM
C=CS(=O)(=O)N(C)CCOc1cnccc1-c1[nH]c2cccnc2c1-c1cc(OC)ccc1F [Example 73, N-[2-({4-[3-(2-fluoro-5-methoxyphenyl)-1H-pyrrolo[3,2-b]pyridin-2-yl]pyridin-3-yl}oxy)ethyl]-N-methylethenesulfonamide] | 0.555 µM | 0.0279 µM | 0.0087 µM
